In patent US20180179189A1, “ADIPATE FORMS AND COMPOSITIONS OF BIARYL INHIBITORS OF BRUTON'S TYROSINE KINASE” (BIOGEN MA INC., priority 2015, published 2018):

What was measured:
[1] = pKa via potentiometric titration; assay type: physicochemical
From the text: Where this threshold is not met, non-ionic interactions (e.g., hydrogen bonds) can still occur between neutral acid and the base compounds to form, e.g., a co-crystal.

Btk = settings: reported in the '853 application; read-out: IC50 in a pBTK assay; cited from earlier work
[2] = DVS (dynamic vapor sorption) test; assay type: physicochemical
Description: DVS was measured via a SMS (Surface Measurement Systems) DVS Intrinsic. The relative humidity at 25° C. were calibrated against deliquescence point of LiCl, Mg(NO3)2 and KCl.

In the case of `Cc1cc(-c2ccnc(Nc3cnn(C)c3)n2)ccc1CNC(=O)N1CC(OC(C)C)C1` [Compound 1, 3-isopropoxy-N-(2-methyl-4-(2-((1-methyl-1H-pyrazol-4-yl)amino)pyrimidin-4-yl)benzyl)azetidine-1-carboxamide], the pKa [1] is given as 3.31 and the IC50 (Btk) is given as […].

In the case of `Cc1cc(-c2ccnc(Nc3cnn(C)c3)n2)ccc1CNC(=O)N1CC(OC(C)C)C1` [Compound 2 Type II], the “form change after the DVS test (XRPD)” value [2] is reported as “no form change”, the “water uptake (DVS)” value ([2]; 25° C./80% RH) is reported as 0.3% and the hygroscopicity ([2]; from DVS, 25° C./80% RH) is reported as “slightly hygroscopic”.
